Laboratory results published in article PMC6742966, “The Synergism of the Small Molecule ENOblock and Fluconazole Against Fluconazole-Resistant Candida albicans” (Frontiers in Microbiology, 2019).

Molecular target: T1, C. albicans enolase 1 (rCaEno1) (Candida albicans, UniProt P30575)
T1 construct: gene ENO1; full-length, C-terminal His6 tag
Assay: SPR (Biacore T200, immobilized rCaEno1, steady-state affinity); also inhibits transglutaminase activity of purified rCaEno1, IC50 about […], with no significant effect on enolase activity
Format: binding

T1 sequence (P30575 whole entry): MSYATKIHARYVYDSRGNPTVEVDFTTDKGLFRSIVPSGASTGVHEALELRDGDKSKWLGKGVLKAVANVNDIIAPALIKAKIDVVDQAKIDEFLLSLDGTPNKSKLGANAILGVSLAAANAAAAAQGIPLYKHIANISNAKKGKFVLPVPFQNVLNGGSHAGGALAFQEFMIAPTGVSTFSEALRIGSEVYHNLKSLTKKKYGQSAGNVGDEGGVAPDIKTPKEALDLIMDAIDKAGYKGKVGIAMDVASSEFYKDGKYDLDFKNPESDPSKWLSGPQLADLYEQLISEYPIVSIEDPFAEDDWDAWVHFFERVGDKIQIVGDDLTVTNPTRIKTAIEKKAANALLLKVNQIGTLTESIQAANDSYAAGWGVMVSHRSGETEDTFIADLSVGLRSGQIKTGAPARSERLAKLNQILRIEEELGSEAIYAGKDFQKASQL

Q: How did the Kd turn out when NCCOCCOCCNC(=O)Cc1ccc(Nc2nc(NCc3ccc(F)cc3)nc(NCC3CCCCC3)n2)cc1 [ENOblock] was run?
A: ~0.3 µM
